In patent US5208344A, “Naphthalenepropionic acid derivatives as anti-inflammatory/antiallergic agents” (American Home Products Corporation, priority 1991, dated 1993):

Columns and labels:
5-lipoxygenase = biological target: T1, 5-lipoxygenase (Rattus norvegicus, UniProt P12527); test: inhibition of 5-HETE synthesis by rat glycogen elicited polymorphonuclear leukocytes; format: cell-based; details: 10 μM; rat PMN; negative = potentiation of 5-HETE synthesis; read-out: % Inhibition of 5-LO (as 5-HETE)
T1 construct: Peritoneal PMN are obtained from female Wistar rats (150-250 g); endogenous in cells; host or cells: rat glycogen-elicited peritoneal polymorphonuclear leukocytes, intact
T1 sequence (P12527 1-673): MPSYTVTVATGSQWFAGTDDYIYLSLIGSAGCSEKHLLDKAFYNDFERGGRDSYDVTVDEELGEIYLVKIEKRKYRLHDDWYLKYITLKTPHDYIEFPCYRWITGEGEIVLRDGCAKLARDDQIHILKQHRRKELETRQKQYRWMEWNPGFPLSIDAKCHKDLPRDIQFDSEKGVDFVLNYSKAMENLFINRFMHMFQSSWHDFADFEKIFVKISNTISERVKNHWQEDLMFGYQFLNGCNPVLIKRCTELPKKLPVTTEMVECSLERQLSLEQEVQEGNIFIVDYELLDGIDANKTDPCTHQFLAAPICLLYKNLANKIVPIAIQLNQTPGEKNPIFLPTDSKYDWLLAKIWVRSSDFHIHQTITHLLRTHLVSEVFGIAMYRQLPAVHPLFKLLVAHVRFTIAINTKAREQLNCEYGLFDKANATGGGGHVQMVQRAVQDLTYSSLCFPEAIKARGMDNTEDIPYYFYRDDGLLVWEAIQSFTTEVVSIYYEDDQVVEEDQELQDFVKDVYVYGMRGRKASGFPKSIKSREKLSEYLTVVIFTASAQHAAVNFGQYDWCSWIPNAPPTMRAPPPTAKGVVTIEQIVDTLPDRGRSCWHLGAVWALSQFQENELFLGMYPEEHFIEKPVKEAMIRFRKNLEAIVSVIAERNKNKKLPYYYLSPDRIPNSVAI
How it was run: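 Peritoneal PMN from female Wistar rats given i.p. glycogen 24 h earlier were preincubated with compound for 10 min at 37° C (2×10^7 cells/ml, 10 mM L-cysteine). They were then stimulated 10 min with 10 μM A23187 plus 0.5 μM [14C]arachidonic acid. 5-HETE was separated by TLC and quantified by scintillation.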

cyclooxygenase = test: inhibition of synthesis of cyclooxygenase products TxB2 and PGE2 (rat polymorphonuclear leukocytes); format: cell-based; details: 10 μM, rat PMN; for % Inhibition of CO (as PGE2): negative = potentiation of PGE2 synthesis
How it was run: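 Glycogen-elicited peritoneal PMN from female Wistar rats, 2×10^7 cells/ml in HBSS with Ca^++, Mg^++ and 10 mM L-cysteine, preincubated with compound 10 min at 37° C. Stimulated 10 min with A23187 (10 μM) plus 0.5 μM [14C] arachidonic acid; TxB2 and PGE2 quantified by TLC, autoradiography and scintillation counting.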

LTD4 = biological target: T2, LTD4 (Cavia porcellus, UniProt Q2NNR5); test: inhibition of LTD4-induced bronchospasm in guinea pigs; format: in vivo; details: 25 mg/kg intraduodenally, 10 minutes before LTD4; guinea pig
T2 construct: isolated guinea pig trachea; from tissue; host or cells: guinea pig tracheal rings
T2 sequence (Q2NNR5 1-340): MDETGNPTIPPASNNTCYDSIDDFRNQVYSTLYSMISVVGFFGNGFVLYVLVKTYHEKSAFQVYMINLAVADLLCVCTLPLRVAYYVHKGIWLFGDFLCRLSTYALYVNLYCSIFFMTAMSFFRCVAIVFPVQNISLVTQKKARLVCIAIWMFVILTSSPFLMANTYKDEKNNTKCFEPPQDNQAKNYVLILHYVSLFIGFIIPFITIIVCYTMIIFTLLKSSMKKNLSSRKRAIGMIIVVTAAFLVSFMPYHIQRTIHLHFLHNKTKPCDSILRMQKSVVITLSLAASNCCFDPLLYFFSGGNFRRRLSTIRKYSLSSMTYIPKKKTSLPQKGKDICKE
Method: The assay of this Example measures the in vivo ability of the compounds of the invention to inhibit the bronchospasm induced in guinea pigs by the exogenously administered leukotrienes C4 and/or D4.
Male Hartley strain guinea pigs (350-600 g) are anesthetized with pentobarbital sodium (50 mg/kg, i.p.). The jugular vein is cannulated for injection of drugs and the carotid artery for monitoring blood pressure. The trachea is cannulated for artificial ventilation by a miniature Starling pump and for indirect measurement of respiratory volume changes. The animals are then pretreated with succinylcholine (2 mg/kg i.v.) and indomethacin (10 mg/kg i.v.) in trizma 8.3 buffer, 9 minutes prior to leukotriene challenge. Submaximal bronchoconstrictor responses are established in control animals by varying the dose-levels of leukotriene. Intravenous dose-levels for LTC4 range from 0.4 to 0.6 μg/kg and for LTD4 the range is from 0.3 to 0.5 μg/kg. The aerosol bronchoprovocation dose for LTC4 is generated from 1.6 μM solution and for LTD4 from a 2.0 μM solution.
Test drugs (dissolved in a solvent such as propylene glycol, polyethylene glycol 400 or saline) are administered either intraduodenally, by aerosol or intragastrically at 2 or 10 minutes before induction of bronchospasm by administration of either LTC4 or LTD4 at the predetermined dose-levels. Aerosols of soluble drugs or leukotrienes are produced in-line for 10 seconds only by actuation of an ultrasonic nebulizer (Monaghan). Aerosolized drug dosage is expressed in terms of solution concentration and by a fixed aerosol exposure time (approximately 10 seconds). Control animals receive solvent (2 ml/kg i.d. or appropriate aerosol) in place of drug.
Respiratory volume changes are determined by a calibrated piston whose travel is recorded, via a linear transducer, on a Beckman Dynograph recorder. Maximal bronchoconstrictor volume is determined by clamping off the trachea at the end of the experiment. Overflow volumes at 1,3 and 5 minutes are obtained from the recorded charts.
Area under the volume overflow curve (AUC) is estimated, using the overflow values at 1,3 and 5 minutes, and expressed as a percentage of the maximal overflow AUC (equation 1): [formula] Drug effects are reported as percent inhibition of % max AUC values obtained from appropriate control animals (equation 2): [formula]
Student's t-test for unpaired data is used to determine statistical signifiance (p<0.05). IC50 values can also be determined by inverse prediction from linear regression liens through points between 10 and 90% inhibition.

carrageenan paw edema = test: rat carrageenan paw edema assay; format: in vivo; details: 1 hour prior to carrageenan, rat
Method: The compounds of the invention are further tested in the rat carrageenan paw edema assay to determine their ability to inhibit the acute inflammatory response.
140-180 gm male Sprague-Dawley rats, in groups of 6 animals are injected subcutaneously in the right paw with 0.1 ml of 1% carrageenan at zero time. Mercury plethysmographic readings (ml) of the paw are made at zero time and 3 hours later. Test compounds are suspended or dissolved in 0.5% methylcellulose and given perorally 1 hour prior to carrageenan administration.
The increase in paw volume (edema in ml.) produced by the carrageenan is measured. […] Unpaired Student's t-test is used to determine statistical significance.

[1] = test system: acute gastroirritation induced by naproxen; test: cytoprotective activity against NSAID (naproxen)-induced acute gastroirritation in rats; format: in vivo, rat; details: drug 100 mg/kg peroral 1 hour before naproxen 25 mg/kg
From the text: The assay of Example 44 is also used to measure the cytoprotective activity of the compounds against acute gastroirritation induced by a nonsteroidal anti-inflammatory drug (NSAID).

pleural inflammation = test: reverse passive Arthus pleurisy assay, pleural inflammation; format: in vivo; details: rat
Method: (§1) The compounds of the invention are further tested in the reverse passive Arthus pleurisy assay to evaluate their effectiveness in inflammatory mediator release and/or the fluid and cellular phases of an inflammatory response.
(§2) A reverse passive Arthus reaction is induced in the pleural cavity of male Lewis rats (150-200 g; fasted overnight prior to use) by the intravenous administration of bovine serum albumin (BSA; 4 mg/0.2 ml) followed 30 minutes later by the injection of rabbit anti-BSA (1 mg/0.2 ml; lyophilized IgG fraction; Organon Teknika, West Chester, PA) into the right pleural space under halothane anesthesia. Drugs or vehicle (0.5% Tween-80) control are administered orally in a volume of 1 ml/100 g body weight at 1 hour prior to the anti-BSA. Animals are sacrificed at either the time of peak eicosanoid production (i.e. 5 minutes after anti-BSA for immunoreactive TxB2, 10 minutes for immunoreactive LTB4, 20 minutes for immunoreactive LTC4) or at the time of peak neutrophil infiltration (4 hours after anti-BSA) by CO2 inhalation. The pleural cavity is then exposed, the fluid exudate removed by gentle vacuum aspiration and the volume of exudate is recorded. For the determination of cellular infiltration, the pleural cavity is rinsed with 3 ml of 0.1% EDTA in sterile saline, and the recovered wash is pooled with the exudate. Cell number is determined on a model ZBI Coulter counter. For determination of eicosanoid production, undiluted pleural exudate is microfuged and the supernatant is extracted with ethanol (8-10 times volume). Extracts are either stored at -20° C., or are evaporated to dryness under a stream of N2 and reconstituted in radioimmunoassay (RIA) buffer.
(§3) Inflammatory cells are expressed as 10^6 cells/ml, pleural exudate is expressed as ml of fluid, and the amount of eicosanoids in the pleural cavity is expressed as ng/ml of exudate. Mean±S.E.M. is determined for each group. Percent inhibition (% I) of cell number, exudate volume and eicosanoid production is calculated for vehicle-treated control groups, and the responses in drug-treated rats are then expressed as the mean $ I of control.

[2] = test system: inflammatory mediator release; test: reverse passive Arthus pleurisy assay, inflammatory mediator release; format: in vivo, rat; details: rat
Method: as §1
as §2, with “Drugs or vehicle (0.5% Tween-80) control are administered orally in a volume of 1 ml/100 g body weight at 1 hour prior to the anti-BSA.” left out
Eicosanoids are quantitated by RIA according to the procedure specified by the RIA kit manufacturer (Advanced Magnetics, Cambridge, MA). Briefly, 100 μl of ^3 H-labeled eicosanoid and 100 μl of specific antibody are sequentially added to 100 μl of extracted pleural exudate in BGG-phosphate buffer which contains 0.01 M phosphate, 0.1% bovine gamma globulin and 0.1% sodium azide at pH 7.0. Antibody-bound eicosanoid is separated form unbound eicosanoid by the addition of 750 μl of dextran (0.4%)-coated charcoal (0.4% Norit A) containing 0.1% sodium azide. The mixture is centrifuged at 2000 RPM at 5° C. for 15 minutes to pellet the charcoal and adsorbed unbound eicosanoid. Antibody-bound labeled eicosanoid is quantitated by counting in a liquid scintillation counter, and is correlated to concentration by a standard curve.
as §3

CC(C(=O)O)c1ccc2cc(OCc3ccc4ccccc4n3)ccc2c1 (stereo not drawn) [Example 1, α-Methyl-6-(2-quinolinylmethoxy)-2-naphthaleneacetic acid]
inhibition at 10 µM (5-lipoxygenase): 100%
% Inhibition of CO (as TxB2) (cyclooxygenase): 28%
% Inhibition of CO (as PGE2) (cyclooxygenase): -37%
% Inhibition (LTD4-induced bronchospasm) (LTD4): 75%
% Inhibition at 50 mg/kg (peroral) (carrageenan paw edema): 42%

CC(C(=O)O)c1ccc2cc(OCc3nc4ccccc4n3C)ccc2c1 (stereo not drawn) [Example 3, α-Methyl-6-[(1-methyl-1H-benzimidazol-2-yl)-methoxy]-2-naphthaleneacetic acid]
inhibition at 10 µM (5-lipoxygenase): 24%
% Inhibition of CO (as TxB2) (cyclooxygenase): 15%
% Inhibition of CO (as PGE2) (cyclooxygenase): -29%
% Inhibition (LTD4-induced bronchospasm) (LTD4): 80%
% Inhibition at 50 mg/kg (peroral) (carrageenan paw edema): 32%

CCCCCCOc1ccc2cc(C(C)C(=O)O)ccc2c1 (stereo not drawn) [Example 10, α-Methyl-6-(hexyloxy)-2-naphthaleneacetic acid]
inhibition at 10 µM (5-lipoxygenase): 81%
% Inhibition of CO (as PGE2) (cyclooxygenase): -5%
% of Rats With Lesions [1]: 37.5%
Comments (protection) [1]: protection

CC(C(=O)O)c1ccc2cc(OCc3ccccc3)ccc2c1 (stereo not drawn) [Example 2, α-Methyl-6-(phenylmethoxy)-2-naphthaleneacetic acid]
inhibition at 10 µM (5-lipoxygenase): 84%
% Inhibition of CO (as TxB2) (cyclooxygenase): 6%
% Inhibition of CO (as PGE2) (cyclooxygenase): -26%
% Inhibition (LTD4-induced bronchospasm) (LTD4): -76%
% Inhibition at 50 mg/kg (peroral) (carrageenan paw edema): 24%

CCCCOc1ccc2cc(C(C)C(=O)O)ccc2c1 (stereo not drawn) [Example 11, α-Methyl-6-(butyloxy)-2-naphthaleneacetic acid]
inhibition at 10 µM (5-lipoxygenase): 28%
% Inhibition of CO (as PGE2) (cyclooxygenase): -3%
% of Rats With Lesions [1]: 50.0%
Comments (protection) [1]: moderate protection

CC(C(=O)O)c1ccc2cc(OCc3ccccn3)ccc2c1 (stereo not drawn) [Example 4, α-Methyl-6-(2-pyridinylmethoxy)-2-naphthaleneacetic acid]
inhibition at 10 µM (5-lipoxygenase): 82%
% Inhibition of CO (as TxB2) (cyclooxygenase): 12%
% Inhibition of CO (as PGE2) (cyclooxygenase): 18%
% Inhibition (LTD4-induced bronchospasm) (LTD4): 52%
% Inhibition at 50 mg/kg (peroral) (carrageenan paw edema): 30%

COc1ccc2c(c1)c(CC(=O)O)c(C)n2C(=O)c1ccc(Cl)cc1 [Indomethacin]
% Inh Cellular Influx (pleural inflammation; 8 mg/kg p.o.): 19%
ED30 Fluid Exudation (pleural inflammation; p.o.): 2.5 mg/kg
Oral ED50 (95% C.L.) (carrageenan paw edema; oral, 95% C.L. in parentheses, 180 min): 3.7 (0.6, 23.8) mg/kg
% Inh LTB4 ([2]; 4 mg/kg p.o.): 12%
ED50 TxB2 ([2]; p.o., 1 hour prior to anti-BSA, 5 min): 0.16 mg/kg
